Literature values in PMC12260505, “First-in-Human Phase I/IIa Study of the First-in-Class CDK2/4/6 Inhibitor PF-06873600 Alone or with Endocrine Therapy in Patients with Breast Cancer” (Clinical Cancer Research, 2025).

Tested on: HR+/HER2− mBC, post-ET patient population
Details: palbociclib and fulvestrant, PALOMA3; cited from earlier work

Q: What does the source list for `CC(=O)c1c(C)c2cnc(Nc3ccc(N4CCNCC4)cn3)nc2n(C2CCCC2)c1=O` [palbociclib]?
A: Median PFS: 9.5 months; ORR: 24.6%
